Measurements as given in patent publication US10953012B2, “Heterocyclic compounds for the inhibition of pask” (BioEnergenix LLC, priority 2011, dated 2021).

What was measured:
[1] = target: CK2a2 (Homo sapiens (Human), UniProt P19784); experiment: Biochemical Assay for CK2 Activity; conditions: 33P-ATP radiochemical assay; read-out: IC50 CK2 a2
Method: Biochemical Assay for CK2 Activity
Purified CK2a2 (NP_001887; human full-length protein, GST tagged) from insect cells (final concentration 1.2 nM) is added to freshly prepared Base Reaction Buffer containing 20 mM Hepes (pH 7.5), 10 mM MgCl2, 1 mM EGTA, 0.02% Brij35, 0.02 mg/ml BSA, 0.1 mM Na3VO4, 2 mM DTT, 1% DMSO and CK2 sub [RRRDDDSDDD] (20 μM final). Test compounds in DMSO are then added and the mixture, followed by delivery of ^33P-ATP (specific activity 0.01 μCi/μl final) to initiate the reaction. The kinase reaction is incubated for 120 min at room temperature. The entire reaction mixture is washed through onto a P81 Phosphocellulose paper and washed three times for 10 minutes in 75 mM phosphoric acid and once in methanol prior to drying and scintillation counting.

[2] = target: PASK (UniProt #Q96RG2; residues 879-1323) (Homo sapiens (Human), UniProt Q96RG2); experiment: PASK ATP Radiochemical Assay; type: biochemical; conditions: 33P-ATP radiochemical assay; read-out: IC50 Kinase Domain
PASK (UniProt #Q96RG2; residues 879-1323) (Homo sapiens (Human), UniProt Q96RG2), sequence (Q96RG2 879-1323): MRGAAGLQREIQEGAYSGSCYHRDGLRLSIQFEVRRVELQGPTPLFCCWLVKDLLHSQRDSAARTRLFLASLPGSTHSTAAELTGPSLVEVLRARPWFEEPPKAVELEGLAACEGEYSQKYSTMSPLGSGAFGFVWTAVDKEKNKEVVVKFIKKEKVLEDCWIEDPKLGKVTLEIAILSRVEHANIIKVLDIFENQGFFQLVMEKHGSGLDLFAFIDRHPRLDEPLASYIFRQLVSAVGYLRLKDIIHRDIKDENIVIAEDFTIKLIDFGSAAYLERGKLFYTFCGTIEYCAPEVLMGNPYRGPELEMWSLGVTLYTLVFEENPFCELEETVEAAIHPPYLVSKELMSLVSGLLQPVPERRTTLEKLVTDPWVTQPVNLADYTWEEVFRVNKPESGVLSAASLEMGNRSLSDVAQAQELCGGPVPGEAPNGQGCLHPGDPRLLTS
Method: PASK ATP Radiochemical Assay Purified PASK (UniProt #Q96RG2; human recombinant N-terminal GST tagged construct, residues 879-1323) from insect cells (final concentration 5 nM) is added to freshly prepared Base Reaction Buffer containing 20 mM HEPES (pH 7.5), 10 mM MgCl2, 1 mM EGTA, 0.02% Brij35, 0.02 mg/ml BSA, 0.1 mM Na3VO4, 2 mM DTT, 1% DMSO and Myelin Basic Protein (20 μM final). Test compounds in DMSO are then added and the mixture, followed by delivery of ^33P-ATP (specific activity 0.01 μCi/μl final) to initiate the reaction. The kinase reaction is incubated for 120 min at room temperature. The entire reaction mixture is washed through onto a P81 Phosphocellulose paper and washed three times for 10 minutes in 75 mM phosphoric acid and once in methanol prior to drying and scintillation counting.

[3] = target: PASK (Homo sapiens (Human), UniProt Q96RG2); experiment: PAS Kinase FRET Assay; type: biochemical; conditions: TR-FRET assay; read-out: IC50 Kinase Domain
PASK (Homo sapiens (Human), UniProt Q96RG2), sequence (Q96RG2 999-1251): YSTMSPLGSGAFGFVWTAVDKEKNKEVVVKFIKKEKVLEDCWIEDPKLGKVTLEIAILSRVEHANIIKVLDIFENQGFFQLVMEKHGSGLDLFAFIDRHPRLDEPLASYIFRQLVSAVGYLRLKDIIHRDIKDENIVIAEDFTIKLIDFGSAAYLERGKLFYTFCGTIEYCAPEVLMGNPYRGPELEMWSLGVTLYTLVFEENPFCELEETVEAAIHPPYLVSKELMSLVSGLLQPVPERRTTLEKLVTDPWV
Procedure, shortened: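 TR-FRET read-out (665/615 nm) of ULight-peptide phosphorylation by PASK, detected with Eu-labelled anti-phospho antibody. Compound, kinase and substrate/ATP reacted 2 h at 25 °C in the dark in 50 mM HEPES, 10 mM MgCl2, 1 mM EGTA, 0.01% Tween-20, 2 mM DTT. Eleven-point dilution series made at 4× final.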

CK2a2, sequence (P19784 whole entry): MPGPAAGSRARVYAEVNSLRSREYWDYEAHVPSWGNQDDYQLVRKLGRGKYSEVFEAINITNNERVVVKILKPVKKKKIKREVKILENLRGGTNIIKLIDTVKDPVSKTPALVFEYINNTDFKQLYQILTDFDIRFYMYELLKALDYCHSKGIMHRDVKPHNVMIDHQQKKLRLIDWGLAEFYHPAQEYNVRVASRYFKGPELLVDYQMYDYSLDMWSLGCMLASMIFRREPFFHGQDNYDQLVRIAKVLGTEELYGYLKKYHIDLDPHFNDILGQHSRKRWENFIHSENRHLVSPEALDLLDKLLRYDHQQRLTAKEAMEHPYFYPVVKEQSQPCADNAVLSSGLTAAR

| IC50 [1] [µM] | IC50 [2] [µM] | IC50 [3] [µM] | Structure (SMILES) |
| --- | --- | --- | --- |
| ≤ 10 | ≤ 10 | ≤ 10 | Cc1nn2c(=O)cc(-c3ccc4c(c3)OCCO4)[nH]c2c1-c1ccc(F)cc1 [Example 81, 5-(2,3-Dihydrobenzo[b][1,4]dioxin-6-yl)-3-(4-fluorophenyl)-2-methylpyrazolo[1,5-a]pyrimidin-7(4H)-one] |
| ≤ 10 | ≤ 10 | ≤ 10 | COc1cccc(-c2cnn3c(=O)cc(-c4ccc5c(c4)OCCO5)[nH]c23)c1 [Example 92, 5-(2,3-Dihydrobenzo[b][1,4]dioxin-6-yl)-3-(3-methoxyphenyl)pyrazolo[1,5-a]pyrimidin-7(4H)-one] |
| ≤ 10 | ≤ 10 | ≤ 10 | O=c1cc(-c2ccc3c(c2)CCO3)[nH]c2c(-c3ccccn3)cnn12 [Example 96, 5-(2,3-Dihydrobenzofuran-5-yl)-3-(pyridin-2-yl)pyrazolo[1,5-a]pyrimidin-7(4H)-one] |
| ≤ 10 | ≤ 10 | ≤ 10 | O=c1cc(-c2ccc3occc3c2)[nH]c2c(-c3ccccc3)cnn12 [Example 97, 5-(Benzofuran-5-yl)-3-phenylpyrazolo[1,5-a]pyrimidin-7(4H)-one] |
| ≤ 10 | ≤ 10 | ≤ 10 | O=c1cc(-c2ccc3c(c2)CCO3)[nH]c2c(-c3ccccc3)cnn12 [Example 98, 5-(2,3-Dihydrobenzofuran-5-yl)-3-phenylpyrazolo[1,5-a]pyrimidin-7(4H)-one] |
| ≤ 10 | ≤ 10 | ≤ 10 | O=c1cc(-c2ccc3c(c2)CCO3)[nH]c2c(-c3cccnc3)cnn12 [Example 99, 5-(2,3-Dihydrobenzofuran-5-yl)-3-(pyridin-3-yl)pyrazolo[1,5-a]pyrimidin-7(4H)-one] |
| ≤ 10 | ≤ 10 | ≤ 10 | O=c1cc(-c2ccc3c(c2)OCO3)[nH]c2c(-c3cccnc3)c(O)nn12 [Example 100, 5-(Benzo[d][1,3]dioxol-5-yl)-2-hydroxy-3-(pyridin-3-yl)pyrazolo[1,5-a]pyrimidin-7(4H)-one] |
| ≤ 10 | ≤ 10 | ≤ 10 | O=c1cc(-c2ccc3c(c2)OCCO3)[nH]c2c(-c3ccccn3)c(O)nn12 [Example 102, 5-(2,3-Dihydrobenzo[b][1,4]dioxin-6-yl)-2-hydroxy-3-(pyridin-2-yl)pyrazolo[1,5-a]pyrimidin-7(4H)-one] |
| ≤ 10 | ≤ 10 | ≤ 10 | O=c1cc(-c2ccc3c(c2)OCCO3)[nH]c2c(-c3ccccc3)c(O)nn12 [Example 103, 5-(2,3-Dihydrobenzo[b][1,4]dioxin-6-yl)-2-hydroxy-3-phenylpyrazolo[1,5-a]pyrimidin-7(4H)-one] |
| ≤ 10 | ≤ 10 | ≤ 10 | O=C(c1cnn2c(=O)cc(-c3ccc4c(c3)OCCO4)[nH]c12)N1CCOCC1 [Example 106, 5-(2,3-Dihydrobenzo[b][1,4]dioxin-6-yl)-3-(morpholine-4-carbonyl)pyrazolo[1,5-a]pyrimidin-7(4H)-one] |
| ≤ 10 | ≤ 10 | ≤ 10 | CN1CCN(C(=O)c2cnn3c(=O)cc(-c4ccc5c(c4)OCCO5)[nH]c23)CC1 [Example 107, 5-(2,3-Dihydrobenzo[b][1,4]dioxin-6-yl)-3-(4-methylpiperazine-1-carbonyl)pyrazolo[1,5-a]pyrimidin-7(4H)-one] |
| ≤ 10 | ≤ 10 | ≤ 10 | O=C(NCc1ccccc1)c1cnn2c(=O)cc(-c3ccc4c(c3)OCCO4)[nH]c12 [Example 108, N-Benzyl-5-(2,3-dihydrobenzo[b][1,4]dioxin-6-yl)-7-oxo-4,7-dihydropyrazolo[1,5-a]pyrimidine-3-carboxamide] |
| ≤ 10 | ≤ 10 | ≤ 10 | O=c1cc(-c2ccc(Cl)cc2)[nH]c2c(-c3ccccn3)cnn12 [Example 109, 5-(4-Chlorophenyl)-3-(pyridin-2-yl)pyrazolo[1,5-a]pyrimidin-7(4H)-one] |
| ≤ 10 | ≤ 10 | ≤ 10 | COc1ccc(-c2cc(=O)n3ncc(-c4ccccn4)c3[nH]2)c(OC)c1 [Example 110, 5-(2,4-Dimethoxyphenyl)-3-(pyridin-2-yl)pyrazolo[1,5-a]pyrimidin-7(4H)-one] |
| ≤ 10 | ≤ 10 | ≤ 10 | COc1ccc(-c2cc(=O)n3ncc(-c4ccccn4)c3[nH]2)cc1OC [Example 111, 5-(3,4-Dimethoxyphenyl)-3-(pyridin-2-yl)pyrazolo[1,5-a]pyrimidin-7(4H)-one] |
| ≤ 10 | ≤ 10 | ≤ 10 | N#Cc1cnn2c(=O)cc(-c3ccc4c(c3)OCCO4)[nH]c12 [Example 113, 5-(2,3-Dihydrobenzo[b][1,4]dioxin-6-yl)-7-oxo-4,7-dihydropyrazolo[1,5-a]pyrimidine-3-carbonitrile] |
| ≤ 10 | ≤ 10 | ≤ 10 | NC(=O)c1cnn2c(=O)cc(-c3ccc4c(c3)OCCO4)[nH]c12 [Example 114, 5-(2,3-Dihydrobenzo[b][1,4]dioxin-6-yl)-7-oxo-4,7-dihydropyrazolo[1,5-a]pyrimidine-3-carboxamide] |
| ≤ 10 | ≤ 10 | ≤ 10 | O=c1c2c([nH]c3c(-c4ccccn4)cnn13)-c1ccccc1CC2 [Example 116, 11-(Pyridin-2-yl)-5,6-dihydrobenzo[h]pyrazolo[5,1-b]quinazolin-7(12H)-one] |
| ≤ 10 | ≤ 10 | ≤ 10 | O=c1cc(-c2ccc3c(c2)OCCO3)[nH]c2c(-c3ccccc3)c(C(F)(F)F)nn12 [Example 117, 5-(2,3-Dihydrobenzo[b][1,4]dioxin-6-yl)-3-phenyl-2-(trifluoromethyl)pyrazolo[1,5-a]pyrimidin-7(4H)-one] |
| ≤ 10 | ≤ 10 | ≤ 10 | O=c1cc(-c2ccc3c(c2)OCCO3)[nH]c2c(-c3ccc(N4CCCC4)nc3)cnn12 [Example 119, 5-(2,3-Dihydrobenzo[b][1,4]dioxin-6-yl)-3-(6-(pyrrolidin-1-yl)pyridin-3-yl)pyrazolo[1,5-a]pyrimidin-7(4H)-one] |
| ≤ 10 | ≤ 10 | ≤ 10 | COc1ccc2c(c1)CCc1c-2[nH]c2c(-c3ccccn3)cnn2c1=O [Example 121, 3-Methoxy-11-(pyridin-2-yl)-5,6-dihydrobenzo[h]pyrazolo[5,1-b]quinazolin-7(12H)-one] |
| ≥ 10 | ≤ 10 | ≤ 10 | COc1ccc(-c2cc(=O)n3nc(O)c(-c4ccccn4)c3[nH]2)c(OC)c1 [Example 122, 5-(2,4-Dimethoxyphenyl)-2-hydroxy-3(pyridin-2-yl)pyrazolo[1,5-a]pyrimidin-7(4H)-one] |
| ≥ 10 | ≤ 10 | ≤ 10 | O=c1cc(-c2ccc(Cl)cc2)[nH]c2c(-c3ccccn3)c(O)nn12 [Example 123, 5-(4-Chlorophenyl)-2-hydroxy-3-(pyridin-2-yl)pyrazolo[1,5-a]pyrimidin-7(4H)-one] |
| ≤ 10 | ≤ 10 | ≤ 10 | O=c1cc(-c2ccc(F)cc2)[nH]c2c(-c3ccccn3)cnn12 [Example 125, 5-(4-Fluorophenyl)-3-(pyridin-2-yl)pyrazolo[1,5-a]pyrimidin-7(4H)-one] |
| ≤ 10 | ≤ 10 | ≤ 10 | O=c1cc(-c2ccc(Cl)c(Cl)c2)[nH]c2c(-c3ccccn3)cnn12 [Example 126, 5-(3,4-Dichlorophenyl)-3-(pyridin-2-yl)pyrazolo[1,5-a]pyrimidin-7(4H)-one] |
| ≤ 10 | ≤ 10 | ≤ 10 | O=c1cc(-c2ccc3occc3c2)[nH]c2c(-c3ccccc3)c(O)nn12 [Example 127, 5-(Benzofuran-5-yl)-2-hydroxy-3-phenylpyrazolo[1,5-a]pyrimidin-7(4H)-one] |
| ≥ 10 | ≤ 10 | ≤ 10 | O=c1cc(-c2ccc(Cl)cc2)[nH]c2c(-c3cccnc3)c(O)nn12 [Example 128, 5-(4-Chlorophenyl)-2-hydroxy-3-(pyridin-3-yl)pyrazolo[1,5-a]pyrimidin-7(4H)-one] |
| ≥ 10 | ≤ 10 | ≤ 10 | O=c1cc(-c2ccc3c(c2)CCO3)[nH]c2c(-c3ccccn3)c(O)nn12 [Example 129, 5-(2,3-Dihydrobenzofuran-5-yl)-2-hydroxy-3-(pyridin-2-yl)pyrazolo[1,5-a]pyrimidin-7(4H)-one] |
